In ChEMBL document CHEMBL5291721, “A preclinical secondary pharmacology resource illuminates target-adverse drug reaction associations of marketed drugs” (Nat Commun, 2023):

Experiments:
D(1A) dopamine receptor [1] = biological target: T1, D(1A) dopamine receptor (Homo sapiens, UniProt P21728); assay type: functional, cell-based
[2] = biological target: Epidermal growth factor receptor (Homo sapiens, UniProt P00533); assay type: functional
[3] = biological target: T2, Gamma-aminobutyric acid receptor subunit alpha-1/alpha-2/beta-2/gamma-2 (Homo sapiens, UniProt P14867+P18507+P47869+P47870); assay type: functional, cell-based
T2 sequence (P14867 whole entry): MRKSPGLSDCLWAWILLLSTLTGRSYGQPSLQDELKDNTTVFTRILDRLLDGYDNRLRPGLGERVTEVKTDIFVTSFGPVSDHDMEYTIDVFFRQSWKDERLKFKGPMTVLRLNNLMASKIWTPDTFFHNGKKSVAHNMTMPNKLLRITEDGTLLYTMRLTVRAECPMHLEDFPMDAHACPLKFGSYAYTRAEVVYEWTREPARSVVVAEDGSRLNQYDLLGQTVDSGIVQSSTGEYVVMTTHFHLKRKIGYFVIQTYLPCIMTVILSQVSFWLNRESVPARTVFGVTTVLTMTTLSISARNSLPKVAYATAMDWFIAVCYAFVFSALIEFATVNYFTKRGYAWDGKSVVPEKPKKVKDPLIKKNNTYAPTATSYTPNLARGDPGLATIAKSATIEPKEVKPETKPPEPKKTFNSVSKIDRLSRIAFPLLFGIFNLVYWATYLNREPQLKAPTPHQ
T2 sequence (P47870 whole entry): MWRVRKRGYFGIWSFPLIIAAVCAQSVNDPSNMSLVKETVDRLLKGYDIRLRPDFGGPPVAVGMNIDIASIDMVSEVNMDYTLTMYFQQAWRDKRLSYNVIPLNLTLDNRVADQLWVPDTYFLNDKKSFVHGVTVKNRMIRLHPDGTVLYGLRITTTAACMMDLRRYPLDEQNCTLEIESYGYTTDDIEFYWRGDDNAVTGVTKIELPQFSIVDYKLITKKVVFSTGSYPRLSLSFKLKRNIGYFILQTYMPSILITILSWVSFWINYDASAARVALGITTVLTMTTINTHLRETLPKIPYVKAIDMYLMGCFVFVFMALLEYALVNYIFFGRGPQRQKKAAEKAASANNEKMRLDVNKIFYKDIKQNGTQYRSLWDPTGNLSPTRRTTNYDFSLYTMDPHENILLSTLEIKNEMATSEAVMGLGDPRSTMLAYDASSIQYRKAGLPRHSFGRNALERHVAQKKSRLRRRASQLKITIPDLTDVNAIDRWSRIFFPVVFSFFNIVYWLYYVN
T2 sequence (P18507 whole entry): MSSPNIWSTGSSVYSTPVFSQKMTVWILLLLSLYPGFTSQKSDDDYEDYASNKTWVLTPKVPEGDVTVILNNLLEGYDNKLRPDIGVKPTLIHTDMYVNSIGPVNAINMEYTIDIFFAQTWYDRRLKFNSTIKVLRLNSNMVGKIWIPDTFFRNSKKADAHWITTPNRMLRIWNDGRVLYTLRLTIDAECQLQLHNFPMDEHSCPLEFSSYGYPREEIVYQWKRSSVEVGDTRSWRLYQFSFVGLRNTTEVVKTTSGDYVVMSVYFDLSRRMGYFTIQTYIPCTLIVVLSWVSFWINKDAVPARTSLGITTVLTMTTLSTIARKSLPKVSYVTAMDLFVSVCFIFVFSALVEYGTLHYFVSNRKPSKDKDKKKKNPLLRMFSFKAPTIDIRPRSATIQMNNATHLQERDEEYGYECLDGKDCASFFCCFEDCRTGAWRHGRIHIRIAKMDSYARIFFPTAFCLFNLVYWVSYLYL
T2 sequence (P47869 whole entry): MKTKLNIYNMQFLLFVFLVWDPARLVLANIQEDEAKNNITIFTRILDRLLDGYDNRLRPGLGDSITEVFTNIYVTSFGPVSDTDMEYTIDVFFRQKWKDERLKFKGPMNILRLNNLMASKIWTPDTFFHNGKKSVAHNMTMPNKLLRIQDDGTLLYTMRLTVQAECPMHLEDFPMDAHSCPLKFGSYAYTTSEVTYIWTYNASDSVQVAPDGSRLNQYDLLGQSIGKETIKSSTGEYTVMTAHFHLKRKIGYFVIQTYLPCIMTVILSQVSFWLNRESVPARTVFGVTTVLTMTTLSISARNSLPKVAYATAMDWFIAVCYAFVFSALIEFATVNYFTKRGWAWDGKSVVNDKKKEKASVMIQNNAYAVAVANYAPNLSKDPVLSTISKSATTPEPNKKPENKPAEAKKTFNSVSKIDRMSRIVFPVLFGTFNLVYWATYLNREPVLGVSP

[4] = biological target: T2, Gamma-aminobutyric acid receptor subunit alpha-1/alpha-2/beta-2/gamma-2; assay type: functional, cell-based; remark: listed apart in the source
Glucocorticoid receptor [5] = biological target: T3, Glucocorticoid receptor (Homo sapiens, UniProt P04150); assay type: functional
T3 sequence (P04150 whole entry): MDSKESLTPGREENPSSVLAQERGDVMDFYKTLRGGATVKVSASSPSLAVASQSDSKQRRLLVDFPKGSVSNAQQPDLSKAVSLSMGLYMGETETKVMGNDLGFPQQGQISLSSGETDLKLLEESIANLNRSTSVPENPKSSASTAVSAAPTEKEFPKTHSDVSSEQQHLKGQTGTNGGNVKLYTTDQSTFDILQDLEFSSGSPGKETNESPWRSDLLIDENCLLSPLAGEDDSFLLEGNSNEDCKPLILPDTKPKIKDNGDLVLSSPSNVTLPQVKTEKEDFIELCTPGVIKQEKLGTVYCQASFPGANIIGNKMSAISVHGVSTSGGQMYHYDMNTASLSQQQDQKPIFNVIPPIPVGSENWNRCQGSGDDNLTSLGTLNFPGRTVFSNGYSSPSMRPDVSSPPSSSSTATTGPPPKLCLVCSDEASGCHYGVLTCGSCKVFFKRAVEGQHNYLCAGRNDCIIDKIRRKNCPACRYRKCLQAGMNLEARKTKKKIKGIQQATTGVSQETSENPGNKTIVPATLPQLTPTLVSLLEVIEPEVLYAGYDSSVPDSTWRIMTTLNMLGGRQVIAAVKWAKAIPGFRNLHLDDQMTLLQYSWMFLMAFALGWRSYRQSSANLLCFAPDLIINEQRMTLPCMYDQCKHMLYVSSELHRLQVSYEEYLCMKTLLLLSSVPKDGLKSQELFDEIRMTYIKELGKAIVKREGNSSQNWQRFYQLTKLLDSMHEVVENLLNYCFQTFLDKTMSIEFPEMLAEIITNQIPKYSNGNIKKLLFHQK

Glucocorticoid receptor [6] = biological target: T3, Glucocorticoid receptor; assay type: functional; remark: listed apart in the source
[7] = biological target: Vascular endothelial growth factor receptor 2 (Homo sapiens, UniProt P35968); assay type: functional
[8] = biological target: T4, Corticotropin-releasing factor receptor 1 (Homo sapiens, UniProt P34998)
T4 sequence (P34998 whole entry): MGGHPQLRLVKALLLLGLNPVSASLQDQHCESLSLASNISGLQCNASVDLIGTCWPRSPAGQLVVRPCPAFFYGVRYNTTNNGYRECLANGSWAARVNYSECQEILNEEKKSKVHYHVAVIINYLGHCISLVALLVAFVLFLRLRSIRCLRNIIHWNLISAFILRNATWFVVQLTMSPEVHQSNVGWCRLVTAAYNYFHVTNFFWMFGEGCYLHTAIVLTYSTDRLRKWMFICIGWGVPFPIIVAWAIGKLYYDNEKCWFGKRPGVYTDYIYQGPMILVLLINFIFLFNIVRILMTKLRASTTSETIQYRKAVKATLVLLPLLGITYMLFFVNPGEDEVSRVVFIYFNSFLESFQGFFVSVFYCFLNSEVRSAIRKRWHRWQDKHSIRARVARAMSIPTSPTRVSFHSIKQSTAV

Estrogen receptor beta = Estrogen receptor beta (Homo sapiens, UniProt Q92731)
Sequence of Estrogen receptor beta (Q92731 whole entry): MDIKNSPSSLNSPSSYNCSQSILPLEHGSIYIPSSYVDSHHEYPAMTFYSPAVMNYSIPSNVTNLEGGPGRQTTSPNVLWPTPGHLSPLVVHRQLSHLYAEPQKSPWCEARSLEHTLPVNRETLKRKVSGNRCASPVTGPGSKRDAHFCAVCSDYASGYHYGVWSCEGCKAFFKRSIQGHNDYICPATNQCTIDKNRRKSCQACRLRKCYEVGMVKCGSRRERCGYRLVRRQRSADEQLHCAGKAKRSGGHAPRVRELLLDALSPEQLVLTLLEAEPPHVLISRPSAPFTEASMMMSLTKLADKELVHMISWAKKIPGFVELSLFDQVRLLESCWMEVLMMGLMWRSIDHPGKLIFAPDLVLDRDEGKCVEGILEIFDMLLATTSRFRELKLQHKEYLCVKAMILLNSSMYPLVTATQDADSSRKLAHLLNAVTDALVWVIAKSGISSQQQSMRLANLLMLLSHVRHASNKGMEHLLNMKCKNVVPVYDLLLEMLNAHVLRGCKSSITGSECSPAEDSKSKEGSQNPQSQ

[9] = biological target: T2, Gamma-aminobutyric acid receptor subunit alpha-1/alpha-2/beta-2/gamma-2; assay type: protein-complex assay
[10] = biological target: T5, Alpha-2A adrenergic receptor (Homo sapiens, UniProt P08913)
T5 sequence (P08913 whole entry): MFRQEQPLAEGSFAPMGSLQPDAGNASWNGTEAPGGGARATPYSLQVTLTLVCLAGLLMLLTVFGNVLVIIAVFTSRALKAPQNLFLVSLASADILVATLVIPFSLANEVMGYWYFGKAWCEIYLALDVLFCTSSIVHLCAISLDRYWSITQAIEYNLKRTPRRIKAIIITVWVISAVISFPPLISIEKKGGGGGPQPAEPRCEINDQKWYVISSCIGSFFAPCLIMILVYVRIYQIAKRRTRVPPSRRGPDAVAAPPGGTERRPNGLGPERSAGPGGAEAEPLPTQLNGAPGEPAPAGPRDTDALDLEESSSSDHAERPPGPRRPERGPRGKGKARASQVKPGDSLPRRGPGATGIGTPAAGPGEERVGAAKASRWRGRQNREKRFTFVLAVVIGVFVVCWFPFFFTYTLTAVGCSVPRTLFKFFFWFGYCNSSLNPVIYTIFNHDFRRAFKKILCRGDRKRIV

D(1A) dopamine receptor [11] = biological target: T1, D(1A) dopamine receptor
Estrogen receptor = biological target: T6, Estrogen receptor (Homo sapiens, UniProt P03372)
T6 sequence (P03372 whole entry): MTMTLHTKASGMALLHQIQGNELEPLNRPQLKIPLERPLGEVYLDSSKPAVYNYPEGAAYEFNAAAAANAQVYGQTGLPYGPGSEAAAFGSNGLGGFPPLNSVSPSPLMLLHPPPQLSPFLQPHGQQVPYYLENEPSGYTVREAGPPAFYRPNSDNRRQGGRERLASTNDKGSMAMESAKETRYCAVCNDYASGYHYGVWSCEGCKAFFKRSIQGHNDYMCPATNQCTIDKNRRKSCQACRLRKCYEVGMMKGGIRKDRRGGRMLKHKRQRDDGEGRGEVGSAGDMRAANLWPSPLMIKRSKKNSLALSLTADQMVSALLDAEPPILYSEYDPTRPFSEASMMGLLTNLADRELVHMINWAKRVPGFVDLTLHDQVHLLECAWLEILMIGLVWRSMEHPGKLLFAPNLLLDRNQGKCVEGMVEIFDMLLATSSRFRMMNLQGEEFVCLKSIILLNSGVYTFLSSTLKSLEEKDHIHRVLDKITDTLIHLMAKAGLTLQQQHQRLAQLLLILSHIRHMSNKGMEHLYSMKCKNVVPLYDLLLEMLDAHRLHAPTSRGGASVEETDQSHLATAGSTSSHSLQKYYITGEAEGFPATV

Mu-type opioid receptor = Mu-type opioid receptor (Homo sapiens, UniProt P35372); assay: biochemical; assay type: functional
Sequence of Mu-type opioid receptor (P35372 whole entry): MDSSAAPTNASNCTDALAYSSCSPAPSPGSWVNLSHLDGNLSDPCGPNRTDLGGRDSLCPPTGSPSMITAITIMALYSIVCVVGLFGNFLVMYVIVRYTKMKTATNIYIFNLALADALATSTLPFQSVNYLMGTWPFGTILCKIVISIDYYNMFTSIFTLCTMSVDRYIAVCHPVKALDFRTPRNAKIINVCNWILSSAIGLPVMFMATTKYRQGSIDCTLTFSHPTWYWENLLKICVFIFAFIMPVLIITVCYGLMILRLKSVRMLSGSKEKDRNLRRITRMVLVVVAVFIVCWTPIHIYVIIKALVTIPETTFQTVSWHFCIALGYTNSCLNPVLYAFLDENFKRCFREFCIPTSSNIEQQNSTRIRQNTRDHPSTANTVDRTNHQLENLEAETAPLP
Also: assay procedure not described here.

Sequence of Epidermal growth factor receptor (P00533 whole entry): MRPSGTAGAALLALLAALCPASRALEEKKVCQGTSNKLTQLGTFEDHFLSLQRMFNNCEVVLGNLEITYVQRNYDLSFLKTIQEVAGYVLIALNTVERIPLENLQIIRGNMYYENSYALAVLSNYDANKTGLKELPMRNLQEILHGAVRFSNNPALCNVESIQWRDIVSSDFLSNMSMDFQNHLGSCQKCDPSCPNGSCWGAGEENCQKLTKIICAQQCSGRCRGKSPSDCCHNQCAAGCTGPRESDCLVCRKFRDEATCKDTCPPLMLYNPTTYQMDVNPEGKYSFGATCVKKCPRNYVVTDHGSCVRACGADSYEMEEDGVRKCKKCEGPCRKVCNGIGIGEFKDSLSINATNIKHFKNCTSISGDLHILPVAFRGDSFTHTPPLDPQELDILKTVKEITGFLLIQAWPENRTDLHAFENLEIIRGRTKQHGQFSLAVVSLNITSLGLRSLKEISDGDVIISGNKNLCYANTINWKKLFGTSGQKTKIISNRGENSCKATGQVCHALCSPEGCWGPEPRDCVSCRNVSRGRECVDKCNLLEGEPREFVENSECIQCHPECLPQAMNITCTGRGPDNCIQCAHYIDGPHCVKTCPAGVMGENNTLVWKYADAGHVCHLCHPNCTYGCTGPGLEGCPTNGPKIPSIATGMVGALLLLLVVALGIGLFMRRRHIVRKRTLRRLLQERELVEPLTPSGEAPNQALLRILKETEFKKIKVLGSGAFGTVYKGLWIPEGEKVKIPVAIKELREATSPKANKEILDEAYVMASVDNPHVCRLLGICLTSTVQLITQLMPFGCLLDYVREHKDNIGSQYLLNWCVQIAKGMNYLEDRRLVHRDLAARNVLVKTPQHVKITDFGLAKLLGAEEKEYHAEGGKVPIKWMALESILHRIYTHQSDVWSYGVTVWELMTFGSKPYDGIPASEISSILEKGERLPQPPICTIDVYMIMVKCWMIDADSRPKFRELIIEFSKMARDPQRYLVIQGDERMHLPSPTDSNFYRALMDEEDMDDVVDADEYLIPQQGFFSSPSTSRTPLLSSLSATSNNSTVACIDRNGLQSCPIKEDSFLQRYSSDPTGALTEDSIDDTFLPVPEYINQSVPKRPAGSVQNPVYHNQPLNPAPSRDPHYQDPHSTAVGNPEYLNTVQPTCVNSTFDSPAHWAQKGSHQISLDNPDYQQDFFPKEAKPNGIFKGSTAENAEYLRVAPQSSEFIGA
T1 sequence (P21728 whole entry): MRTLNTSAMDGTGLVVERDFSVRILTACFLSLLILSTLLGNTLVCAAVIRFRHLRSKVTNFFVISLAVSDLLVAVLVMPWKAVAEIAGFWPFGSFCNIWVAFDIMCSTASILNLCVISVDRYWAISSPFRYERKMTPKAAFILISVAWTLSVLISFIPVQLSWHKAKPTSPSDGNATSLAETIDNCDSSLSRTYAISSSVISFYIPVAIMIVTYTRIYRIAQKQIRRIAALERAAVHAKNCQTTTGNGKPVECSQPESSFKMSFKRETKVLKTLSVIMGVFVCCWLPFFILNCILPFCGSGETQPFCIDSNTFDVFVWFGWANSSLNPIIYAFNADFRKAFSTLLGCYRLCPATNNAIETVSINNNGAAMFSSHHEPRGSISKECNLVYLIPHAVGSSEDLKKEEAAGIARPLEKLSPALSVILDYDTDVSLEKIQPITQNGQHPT

Row | SMILES | AC50 (D(1A) dopamine receptor [1]) | AC50 [2] | AC50 [3] | AC50 [4] | AC50 (Glucocorticoid receptor [5]) | AC50 (Glucocorticoid receptor [6]) | AC50 [7] | AC50 [8] | AC50 (Estrogen receptor beta) | AC50 [9] | AC50 [10] | AC50 (D(1A) dopamine receptor [11]) | AC50 (Estrogen receptor) | AC50 (Mu-type opioid receptor)
1 | CN(C)CCC=C1c2ccccc2C(C)(C)c2ccccc21 | 4.5 µM | > 30 µM | > 30 µM | > 30 µM | > 30 µM | > 30 µM | > 30 µM |  |  |  |  |  |  | 
2 | CNC(=O)c1ccccc1Sc1ccc2c(/C=C/c3ccccn3)n[nH]c2c1 [AXITINIB] | > 30 µM |  | > 30 µM | > 30 µM | > 10 µM | > 10 µM |  |  |  |  |  |  |  | 
3 | NCC(CC(=O)O)c1ccc(Cl)cc1 (stereo not given) [BACLOFEN] | > 30 µM | > 30 µM | > 30 µM | > 30 µM | > 30 µM | > 30 µM | > 30 µM | > 30 µM | > 30 µM | > 30 µM | > 10 µM | > 10 µM |  | 
4 | CC(C)C[C@H]1C(=O)N2CCC[C@H]2[C@]2(O)O[C@](NC(=O)[C@@H]3C=C4c5cccc6[nH]c(Br)c(c56)C[C@H]4N(C)C3)(C(C)C)C(=O)N12 [BROMOCRIPTINE] | > 30 µM | > 30 µM | > 30 µM | > 30 µM | > 30 µM | > 30 µM | > 30 µM | > 30 µM |  |  |  | > 10 µM |  | 
5 | O=C1Nc2ccc(Cl)cc2[C@@](C#CC2CC2)(C(F)(F)F)O1 [EFAVIRENZ] |  |  |  |  | > 30 µM | > 30 µM |  |  |  |  |  |  | > 30 µM | 
6 | O=C(OCC(O)CO)c1ccccc1Nc1ccnc2cc(Cl)ccc12 (stereo not given) [GLAFENINE] | > 30 µM | > 30 µM | > 30 µM | 17 µM |  |  | 13 µM |  |  | > 30 µM |  |  |  | 
7 | CCC1=C(C)CN(C(=O)NCCc2ccc(S(=O)(=O)NC(=O)N[C@H]3CC[C@H](C)CC3)cc2)C1=O [GLIMEPIRIDE] |  |  |  |  | > 30 µM | > 30 µM |  |  |  | > 30 µM |  |  |  | 
8 | c1ccc([C@H]2CN3CCSC3=N2)cc1 [LEVAMISOLE] | > 30 µM | > 30 µM | > 30 µM | > 30 µM | > 30 µM | > 30 µM | > 30 µM |  |  |  |  | > 30 µM |  | > 30 µM
9 | C[C@H]1CNCCc2ccc(Cl)cc21 [LORCASERIN] | > 30 µM | > 30 µM | > 30 µM | > 30 µM | > 30 µM | > 30 µM | > 30 µM |  |  |  |  |  |  | 
10 | C[C@@H](O)[C@H]1C(=O)N2C(C(=O)O)=C(S[C@@H]3CN[C@H](C(=O)N(C)C)C3)[C@H](C)[C@H]12 [MEROPENEM] | > 300 µM | > 300 µM | > 300 µM | > 300 µM | > 300 µM | > 300 µM | > 300 µM |  |  |  |  |  |  | 
11 | CNC1Cc2ccccc2N(C)c2ccccc21 (stereo not given) [METAPRAMINE] | > 30 µM | > 30 µM | > 30 µM | > 30 µM | > 30 µM | > 30 µM | > 30 µM |  |  |  |  |  |  | 
12 | COc1ccc(CC(C)(C)NC[C@H](O)c2cc(O)cc3c2OCC(=O)N3)cc1 [OLODATEROL] | > 30 µM | > 30 µM | > 30 µM | > 30 µM | > 30 µM | > 30 µM | > 30 µM |  |  |  |  |  |  | 
13 | CCCN1C[C@H](CSC)C[C@@H]2c3cccc4[nH]cc(c34)C[C@H]21 [PERGOLIDE] |  | > 30 µM | > 30 µM | > 30 µM | > 30 µM | > 30 µM | > 30 µM | > 30 µM | > 30 µM |  |  |  | > 30 µM | 
14 | C1CCC(C(CC2CCCCN2)C2CCCCC2)CC1 (stereo not given) [PERHEXILINE] | > 30 µM | > 30 µM | > 30 µM |  | > 30 µM | > 30 µM | > 30 µM |  |  |  |  |  |  | 
15 | c1cnc(N2CCN(Cc3ccc4c(c3)OCO4)CC2)nc1 [PIRIBEDIL] | > 30 µM | > 30 µM | > 30 µM | > 30 µM | > 30 µM | > 30 µM | > 30 µM |  |  |  |  |  |  | 
16 | COCCCN1CCC(NC(=O)c2cc(Cl)c(N)c3c2OCC3)CC1 [PRUCALOPRIDE] |  |  | > 30 µM | > 30 µM | > 30 µM | > 30 µM |  |  |  |  |  |  |  | 
17 | Cc1c(C(=O)NN2CCCCC2)nn(-c2ccc(Cl)cc2Cl)c1-c1ccc(Cl)cc1 [RIMONABANT] | 26 µM | > 30 µM | > 30 µM | > 30 µM | > 30 µM | > 30 µM | > 30 µM | > 30 µM | > 30 µM |  | > 10 µM |  | > 30 µM | 
18 | Cc1cn([C@H]2C=C[C@@H](CO)O2)c(=O)[nH]c1=O [STAVUDINE] |  |  |  |  |  |  | > 30 µM | > 30 µM | > 30 µM | > 30 µM | > 10 µM | > 10 µM |  | 
19 | Cn1nnc2c(C(N)=O)ncn2c1=O [TEMOZOLOMIDE] | > 30 µM | > 30 µM | > 30 µM | > 30 µM |  |  | > 30 µM | > 30 µM | > 30 µM |  | > 10 µM | > 10 µM | > 30 µM | 
20 | N[C@@H]1[C@H]2CN(c3nc4c(cc3F)c(=O)c(C(=O)O)cn4-c3ccc(F)cc3F)C[C@@H]12 [TROVAFLOXACIN] | > 30 µM |  | > 30 µM | > 30 µM | > 30 µM | > 30 µM |  |  |  |  |  |  |  | 
